Assay results published in the NIST ThermoML archive (doi:10.1021/je2006117).
Values joined by “and” are separate entries in the source; they are usually repeats but may differ in a detail not shown here. Identical values can stand only once.

Assays:
[1] = mn = molality of the nth substance listed, in mol/kg; settings: 298.15 K, 101 kPa, Liquid; for viscosity: Capillary tube (Ostwald / Ubbelohde) method; for mass density: Vibrating tube method
[2] = refractive index (Na D-line) (dimensionless); mn = molality of the nth substance listed, in mol/kg; settings: 298.15 K, 101 kPa, Liquid, Standard Abbe refractometry
[3] = 298.15 K, Liquid
[4] = refractive index (Na D-line) (dimensionless); settings: 298.15 K; 101.33 kPa; Liquid; Standard Abbe refractometry

CCCCCn1cc[n+](C)c1.[Br-] [1-pentyl-3-methylimidazolium bromide] + CN(C)C=O
Settings | mass density, [1] [kg/m3] | refractive index, [2] | viscosity, [1] [mPa·s]
m1 = 0.0201 | 945.2 | 1.4291 | 0.877
m1 = 0.0409 | 946.55 | 1.4297 | 0.89
m1 = 0.0618 | 947.88 | 1.4299 | 0.899
m1 = 0.0853 | 949.36 | 1.4309 | 0.912
m1 = 0.1009 | 950.32 | 1.4312 | 0.925
m1 = 0.1186 | 951.39 | 1.4317 | 0.942
m1 = 0.1433 | 952.9 | 1.432 | 0.957
m1 = 0.161 | 953.93 | 1.4323 | 0.965
m1 = 0.1798 | 955.02 | 1.4329 | 0.982
m1 = 0.205 | 956.48 | 1.4333 | 0.991

CN(C)C=O [dimethylformamide]
[3]
Settings | mass density | viscosity [mPa·s]
101 kPa, Vibrating tube method | 943.88 kg/m3 and 943.99 kg/m3 | –
101.33 kPa, Capillary tube (Ostwald / Ubbelohde) method | – | 0.8608

Settings | mass density [kg/m3]
[3], 101.33 kPa | 943.88

Settings | refractive index
[4] | 1.4285

C(=NCCN=Cc1ccccn1)c1ccccn1 [N,N'-bis(2-pyridinylmethylene)-1,2-ethanediamine] + CN(C)C=O
[1]
Settings | mass density
m1 = 0.0401 | 945.31 kg/m3
m1 = 0.0484 | 945.37 kg/m3
m1 = 0.0728 | 946.33 kg/m3
m1 = 0.0941 | 946.67 kg/m3
m1 = 0.1205 | 947.34 kg/m3
m1 = 0.1508 | 948.27 kg/m3
m1 = 0.1553 | 949.12 kg/m3 and 949.25 kg/m3

CCC[n+]1ccn(C)c1.[Br-] [1-methyl-3-propylimidazolium bromide] + CN(C)C=O
Settings | mass density, [1] [kg/m3] | refractive index, [2] | viscosity, [1] [mPa·s]
m1 = 0.0268 | 945.94 | 1.4289 | 0.88
m1 = 0.0444 | 947.2 | 1.4296 | 0.889
m1 = 0.0628 | 948.49 | 1.4302 | 0.897
m1 = 0.0851 | 950.04 | 1.4307 | 0.905
m1 = 0.103 | 951.26 | 1.4309 | 0.917
m1 = 0.1256 | 952.76 | 1.4312 | 0.923
m1 = 0.1396 | 953.7 | 1.4317 | 0.936
m1 = 0.1656 | 955.41 | 1.4321 | 0.956
m1 = 0.1826 | 956.49 | 1.4328 | 0.966
m1 = 0.2057 | 957.93 | 1.4336 | 0.975
